The conditions of data set [1]: Liquid, Ebulliometric method (Recirculating still).
Data set [2] can be described thus: refractive index (Na D-line) (dimensionless). As to conditions: 293.15 K; 101.33 kPa; Liquid; Standard Abbe refractometry.

Structures are written as SMILES. Several values for one entry are separate records, joined by “and”; a condition that tells them apart may be missing. Equal values may be shown once. Numbers after ± are expanded uncertainties.

For orientation: vapor or sublimation pressure means the equilibrium pressure above the liquid or solid. As usually defined, the refractive index is a measure of how strongly the sample bends light. `CC(C)CO` [2-methyl-1-propanol]: the “vapor or sublimation pressure” value was determined as 2.01 ± 0.22 kPa in data set [1] (303.15 K), 7.11 ± 0.23 kPa in data set [1] (323.15 K) and 20.47 ± 0.24 kPa in data set [1] (343.15 K). For the same compound, the refractive index in data set [2] is 1.3958 ± 0.002.

Take `CCC(C)O` (stereo unspecified) [butan-2-ol]: the “vapor or sublimation pressure” value in data set [1] (303.15 K) is 3.27 ± 0.23 kPa; in data set [1] (329.15 K), 14.83 ± 0.23 kPa and 14.37 ± 0.23 kPa; in data set [1] (343.15 K), 29.58 ± 0.26 kPa. Moreover, in data set [2], the refractive index was found to be 1.3976 ± 0.002.

In the case of `CCCCCC` [hexane], the “vapor or sublimation pressure” value in data set [1] (303.15 K) is 25.09 ± 0.28 kPa; in data set [1] (323.15 K), 54.3 ± 0.29 kPa; in data set [1] (329.15 K), 66.87 ± 0.39 kPa and 67.73 ± 0.39 kPa; in data set [1] (343.15 K), 105.38 ± 0.71 kPa. In addition, the refractive index in data set [2] is reported as 1.3725 ± 0.002.

As for `CCCO` [propan-1-ol], the “vapor or sublimation pressure” value is 3.9 ± 0.22 kPa in data set [1] (303.15 K); 7.02 ± 0.23 kPa and 6.93 ± 0.23 kPa in data set [1] (313.15 K); 12.19 ± 0.23 kPa in data set [1] (323.15 K). Further, in data set [2], the refractive index was found to be 1.3853 ± 0.002.

Regarding `O` [water], the “vapor or sublimation pressure” value in data set [1] (303.15 K) is 4.27 ± 0.22 kPa; in data set [1] (313.15 K) it was 7.44 ± 0.23 kPa and 7.34 ± 0.23 kPa; in data set [1] (323.15 K), 12.38 ± 0.23 kPa. Besides, in data set [2], the refractive index is 1.3333 ± 0.002.

(Values after the NIST ThermoML archive (doi:10.1021/acs.jced.9b00102).)
